We go through 15 compounds from ChEMBL document CHEMBL1201862, “PubChem BioAssay data set” (2004).

Assay [1] can be described thus: cytotoxicity in HEK293 background cells – cell-based, dry powder, set 2, counter-screen for EBV LMP1 inhibitor project, dose response (AID 624374). The assay is classed as functional. (Counterscreens check selectivity or assay interference.)
Assay [2] has as its target Beta-lactamase (Salmonella choleraesuis (strain SC-B67), UniProt Q5J463). The experiment in a line: Epi-absorbance-based counterscreen for selective VIM-2 inhibitors: dose response biochemical high throughput screening assay to identify inhibitors of TEM-1 serine-beta-lactamase.
Assay [3] has as its target T1, Beta-lactamase (Pseudomonas aeruginosa, UniProt Q79MP6). Nature of the assay: inhibition of IMP-1 beta-lactamase activity – biochemical, epi-absorbance, selectivity assay for VIM-2 inhibitor project, dose response (AID 1920).
Assay [4] deals with T1, Beta-lactamase. The experiment in a line: […] counterscreen for selective VIM-2 inhibitors: dose response biochemical high throughput screening assay to identify inhibitors of IMP-1 metallo-beta-lactamase.
The target of assay [5] is Protein-tyrosine kinase 2-beta (Homo sapiens, UniProt Q14289).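 Further: potency of inhibitors of PYK2 kinase phosphorylation of poly-GT substrate.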
The target of assay [6] is Mitochondrial peptide methionine sulfoxide reductase (Bos taurus, UniProt P54149). It is filed as functional.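 Further: absorbance read-out, biochemical high-throughput dose-response screen for MsrA inhibitors, confirmatory; recombinant bovine MsrA coupled to E. coli TrxB with NADPH and selenocystamine; potency is for inhibitors of MsrA activity on DMSO substrate.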
The target in assay [7] is T2, Methionyl-tRNA synthetase, putative (Trypanosoma brucei brucei, UniProt Q38C91). It is filed as functional, Trypanosoma brucei brucei strain 927/4 GUTat10.1.
T2 sequence (Q38C91 whole entry): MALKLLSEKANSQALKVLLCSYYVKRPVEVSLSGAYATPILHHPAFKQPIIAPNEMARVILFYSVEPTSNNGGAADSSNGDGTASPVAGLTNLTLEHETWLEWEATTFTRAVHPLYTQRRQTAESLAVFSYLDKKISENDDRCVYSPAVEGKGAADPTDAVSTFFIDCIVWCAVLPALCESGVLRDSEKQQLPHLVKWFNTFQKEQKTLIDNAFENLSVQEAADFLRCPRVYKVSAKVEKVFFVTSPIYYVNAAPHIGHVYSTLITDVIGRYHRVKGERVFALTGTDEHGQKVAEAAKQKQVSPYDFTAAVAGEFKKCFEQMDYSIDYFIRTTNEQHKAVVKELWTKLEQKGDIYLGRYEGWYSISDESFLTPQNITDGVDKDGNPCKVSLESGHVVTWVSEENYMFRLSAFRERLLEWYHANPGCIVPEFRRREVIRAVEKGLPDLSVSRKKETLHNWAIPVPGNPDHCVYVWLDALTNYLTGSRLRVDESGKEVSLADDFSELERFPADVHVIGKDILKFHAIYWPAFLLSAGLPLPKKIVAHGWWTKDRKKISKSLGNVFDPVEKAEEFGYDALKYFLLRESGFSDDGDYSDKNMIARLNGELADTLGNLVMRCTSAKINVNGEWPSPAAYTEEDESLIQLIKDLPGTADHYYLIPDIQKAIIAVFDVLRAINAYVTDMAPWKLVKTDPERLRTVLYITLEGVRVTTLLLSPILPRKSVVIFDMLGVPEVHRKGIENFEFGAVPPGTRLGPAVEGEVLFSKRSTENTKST
Assay [8] can be described thus: Counterscreen for inhibitors of Trypanosoma brucei methionyl tRNA synthetase (MetRS): Luminescence-based cell-based high throughput dose response assay to identify compounds that are cytotoxic to Jurkat human T lymphocyte cells. It is filed as functional.
Assay [9] has as its target T2, Methionyl-tRNA synthetase, putative. The assay is classed as functional, Trypanosoma brucei brucei strain 927/4 GUTat10.1. This is another data set of the same source.
Assay [10] concerns INS1. Nature of the assay: INS-1E survival protection against cytokine death – cell-based, luminescence, retest, dose response (AID 449756).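 Further: cell death triggered by IL-1 beta plus TNF-alpha plus IFN-gamma mixture; protective hits raise ATP signal compared with cytokine alone wells.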 It is filed as functional. The note with it: Rattus norvegicus.
Assay [11] in a line: reduction of Shn3 3'UTR-driven luciferase in osteoblasts – cell-based, Clone20 osteoblasts, firefly luciferase, cherry-picked, dose response (AID 624132).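 Further: firefly luciferase luminescence from reporter carrying the Shn3 3'UTR in osteoblasts.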 The assay is classed as functional.
A short description of assay [12]: loss of viability in HepG2 cells – cell-based, CellTiter-Glo, cherry-picked, cytotoxicity control for Shn3 inhibitor project, dose response (AID 624134). It is filed as functional. (ATP-based viability assays read luminescence as a measure of living cells.)
Assay [13] in a line: non-specific 3'UTR reporter inhibition in Clone20-Shn3RL – cell-based, Renilla luciferase, cherry-picked, counter-screen for Shn3 inhibitor project, dose response (AID 624133). The assay is classed as functional.
In assay [14] the target is Protein Wnt-3a (Mus musculus, UniProt P27467). Nature of the assay: antagonism of Wnt3a pathway luciferase reporter – Wnt-LIGHT cells, luminescence, selectivity assay for Gli-SUFU antagonist project, dose response (AID 651570).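 Further: Wnt-LIGHT reporter cells stimulated with conditioned medium from Wnt3a-producing cells.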 It is filed as functional. The note with it: read-out: IC50_Mean.
Chain of Protein Wnt-3a (P27467 whole entry): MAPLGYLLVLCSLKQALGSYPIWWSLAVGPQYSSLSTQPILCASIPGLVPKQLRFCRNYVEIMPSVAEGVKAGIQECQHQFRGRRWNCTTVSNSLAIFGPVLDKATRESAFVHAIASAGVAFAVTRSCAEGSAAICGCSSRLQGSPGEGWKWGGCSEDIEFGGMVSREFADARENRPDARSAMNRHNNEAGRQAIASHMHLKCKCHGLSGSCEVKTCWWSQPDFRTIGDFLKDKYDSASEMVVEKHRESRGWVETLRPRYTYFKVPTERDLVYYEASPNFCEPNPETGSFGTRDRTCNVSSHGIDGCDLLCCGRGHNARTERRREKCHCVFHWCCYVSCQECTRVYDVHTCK
In assay [15] the target is COUP transcription factor 2 (Homo sapiens, UniProt P24468). Nature of the assay: Luminescence-based cell-based high throughput dose response assay to identify inhibitors of COUP-TFII (NR2F2). It is filed as functional.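 Further: HEK293 cells transiently cotransfected with COUP-TFII expression vector and reporter; luciferase reporter luminescence driven by COUP-TFII from the pX2-168 reporter plasmid.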
The nature of assay [16]: intracellular Trypanosoma cruzi inhibitors in host cells – cell-based, plate reader, cherry-pick samples, set 3, dose response (AID 651818).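 Further: compounds incubated with infected cells for about four days.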 The assay is classed as functional.
Assay [17] can be described thus: inhibition of ARNT PAS-B/TACC3 complex formation – biochemical, AlphaScreen, cherry-picked samples, confirmation (AID 651703).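 Further: His-tagged ARNT PAS-B domain paired with GST-TACC3 E629A dimer coactivator fragment; potency of inhibitors that break up the complex and lower AlphaScreen signal.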 It is filed as functional, Homo sapiens.
The target of assay [18] is T3, Caspase-6 (Homo sapiens, UniProt P55212).
T3 sequence (P55212 whole entry): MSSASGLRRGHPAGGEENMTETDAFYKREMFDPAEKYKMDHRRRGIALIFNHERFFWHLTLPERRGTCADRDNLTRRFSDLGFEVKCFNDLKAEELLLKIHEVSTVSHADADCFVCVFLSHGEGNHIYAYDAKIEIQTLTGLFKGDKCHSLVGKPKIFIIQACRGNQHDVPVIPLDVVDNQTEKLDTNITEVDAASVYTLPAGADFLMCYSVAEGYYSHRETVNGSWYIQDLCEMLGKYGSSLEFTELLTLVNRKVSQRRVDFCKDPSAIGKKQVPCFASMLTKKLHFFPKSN
The experiment in a line: inhibition of CASP6 peptide cleavage – biochemical, VEID-R110 fluorescence, cherry-pick, dose response (AID 720632).

Assay [19] addresses Long-chain-fatty-acid--AMP ligase FadD28 (Mycobacterium tuberculosis, UniProt P9WQ59). Nature of the assay: Fluorescence polarization aasay to screen for inhibitors that compete for the binding of FadD28 to a bisubstrate Measured in Biochemical System Using Plate Reader - 2147-01_Inhibitor_Dose_CherryPick_Activity. It is filed as functional, Mycobacterium tuberculosis H37Rv. For orientation: In fluorescence polarisation assays a small probe gives low polarisation when free and higher when bound to something large.

For assay [20], the target named is DNA dC->dU-editing enzyme APOBEC-3A (Homo sapiens, UniProt P31941). Nature of the assay: Dose Response confirmation of small molecule APOBEC3A DNA Deaminase Inhibitors via a fluorescence-based single-stranded DNA deaminase assay. [Related pubchem assays (depositor defined):AID493011, AID493024]. It is filed as functional.
Chain of DNA dC->dU-editing enzyme APOBEC-3A (P31941 whole entry): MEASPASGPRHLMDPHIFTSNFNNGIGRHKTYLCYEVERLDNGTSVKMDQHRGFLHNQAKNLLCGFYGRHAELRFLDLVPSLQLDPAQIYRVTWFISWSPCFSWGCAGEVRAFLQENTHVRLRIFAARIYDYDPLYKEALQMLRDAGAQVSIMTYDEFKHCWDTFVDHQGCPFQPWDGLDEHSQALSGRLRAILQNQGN
In assay [21] the target is DNA dC->dU-editing enzyme APOBEC-3G (Homo sapiens, UniProt Q9HC16). It is filed as functional.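 Further: Dose-response counterscreen measuring inhibition of APOBEC3G DNA deaminase activity, run while confirming APOBEC3A inhibitors.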
Chain of DNA dC->dU-editing enzyme APOBEC-3G (Q9HC16 whole entry, the tested form may be a part): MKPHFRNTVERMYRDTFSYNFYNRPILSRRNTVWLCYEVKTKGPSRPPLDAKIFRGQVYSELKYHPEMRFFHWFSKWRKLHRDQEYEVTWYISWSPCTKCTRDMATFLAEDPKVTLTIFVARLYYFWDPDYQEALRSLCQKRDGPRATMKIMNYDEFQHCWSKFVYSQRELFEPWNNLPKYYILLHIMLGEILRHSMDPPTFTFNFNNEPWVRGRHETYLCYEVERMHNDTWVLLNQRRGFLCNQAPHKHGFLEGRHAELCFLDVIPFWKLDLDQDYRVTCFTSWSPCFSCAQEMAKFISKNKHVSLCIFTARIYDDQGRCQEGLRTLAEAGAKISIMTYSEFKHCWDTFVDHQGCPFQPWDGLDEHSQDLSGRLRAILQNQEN
The target in assay [22] is T4, Carboxy-terminal domain RNA polymerase II polypeptide A small phosphatase 1 (Homo sapiens, UniProt Q9GZU7).
T4 sequence (Q9GZU7 whole entry): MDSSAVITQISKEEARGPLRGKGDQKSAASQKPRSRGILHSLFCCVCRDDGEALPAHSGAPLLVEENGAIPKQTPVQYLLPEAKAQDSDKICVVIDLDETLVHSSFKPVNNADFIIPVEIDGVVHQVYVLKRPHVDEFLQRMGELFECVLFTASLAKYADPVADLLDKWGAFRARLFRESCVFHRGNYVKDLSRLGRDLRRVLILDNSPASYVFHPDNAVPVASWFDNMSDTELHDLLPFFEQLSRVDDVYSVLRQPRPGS
The experiment in a line: CTDSP1 inhibitors, concentration-response, biochemical, absorbance readout, ultra-high-throughput screen actives (AID 540297). The assay is classed as functional.

Assay [23] concerns the target DNA (cytosine-5)-methyltransferase 1 (Homo sapiens, UniProt P26358). The experiment in a line: inhibition of DNA methylation by DNMT1 – biochemical, fluorescent molecular beacon, confirmation (AID 602386). It is filed as functional.
Assay [24] addresses Beta-galactosidase (Escherichia coli, UniProt Q8VNN2). Nature of the assay: Dose response counterscreen for EBI2 assay utilizing the enzyme, b-galactosidase. The assay is classed as functional.
The target of assay [25] is Adenosylmethionine-8-amino-7-oxononanoate aminotransferase (Mycobacterium tuberculosis, UniProt P9WQ81). The experiment in a line: Mycobacterium tuberculosis BioA enzyme inhibitor Measured in Biochemical System Using Plate Reader - 2163-02_Inhibitor_Dose_CherryPick_Activity. It is filed as functional, Mycobacterium tuberculosis UT205.
Chain of Adenosylmethionine-8-amino-7-oxononanoate aminotransferase (P9WQ81 whole entry): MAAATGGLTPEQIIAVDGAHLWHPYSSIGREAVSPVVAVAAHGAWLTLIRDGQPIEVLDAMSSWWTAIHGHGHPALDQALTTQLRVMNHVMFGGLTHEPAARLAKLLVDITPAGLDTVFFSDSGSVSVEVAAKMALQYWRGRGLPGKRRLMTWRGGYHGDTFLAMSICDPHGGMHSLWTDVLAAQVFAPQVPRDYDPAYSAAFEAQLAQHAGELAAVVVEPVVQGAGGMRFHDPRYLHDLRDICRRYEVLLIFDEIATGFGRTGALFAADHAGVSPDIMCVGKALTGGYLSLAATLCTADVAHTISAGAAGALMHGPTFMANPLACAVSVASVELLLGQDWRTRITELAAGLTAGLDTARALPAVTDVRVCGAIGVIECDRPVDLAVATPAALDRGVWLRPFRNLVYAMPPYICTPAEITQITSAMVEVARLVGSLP
For assay [26], the target named is T5, RNA-binding protein pos-1 (Caenorhabditis elegans, UniProt G5EF15).
T5 sequence (G5EF15 whole entry): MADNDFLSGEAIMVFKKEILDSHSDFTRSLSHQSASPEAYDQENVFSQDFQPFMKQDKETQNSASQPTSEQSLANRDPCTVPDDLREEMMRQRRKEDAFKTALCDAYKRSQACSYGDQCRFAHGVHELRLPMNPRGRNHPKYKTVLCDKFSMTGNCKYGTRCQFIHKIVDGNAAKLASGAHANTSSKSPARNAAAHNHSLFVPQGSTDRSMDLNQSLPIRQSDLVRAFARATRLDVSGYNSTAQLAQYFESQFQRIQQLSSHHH
The experiment in a line: disruptors of C. elegans POS-1 RNA interaction – biochemical, fluorescence polarization, dose response (AID 1964).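 Further: purified POS-1 fused to maltose binding protein made in E. coli; potency of compounds blocking POS-1 binding to fluorescent RNA.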

Assay [27] has as its target T6, Zinc finger protein mex-5 (Caenorhabditis elegans, UniProt Q9XUB2).
T6 sequence (Q9XUB2 whole entry): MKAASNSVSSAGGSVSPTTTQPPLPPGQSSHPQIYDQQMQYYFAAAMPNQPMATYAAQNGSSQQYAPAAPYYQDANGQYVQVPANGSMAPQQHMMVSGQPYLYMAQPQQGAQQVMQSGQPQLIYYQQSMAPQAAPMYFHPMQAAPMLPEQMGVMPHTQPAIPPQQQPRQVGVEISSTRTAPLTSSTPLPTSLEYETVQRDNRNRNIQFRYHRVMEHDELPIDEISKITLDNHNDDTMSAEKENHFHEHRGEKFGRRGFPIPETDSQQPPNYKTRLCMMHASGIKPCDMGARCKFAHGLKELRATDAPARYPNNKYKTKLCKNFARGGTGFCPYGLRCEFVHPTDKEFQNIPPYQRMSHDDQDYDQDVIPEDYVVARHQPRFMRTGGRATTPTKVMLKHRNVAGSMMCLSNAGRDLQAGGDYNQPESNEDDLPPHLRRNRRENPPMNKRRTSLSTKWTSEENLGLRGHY
The experiment in a line: potency of MEX-5 RNA-binding blockers – biochemical, C. elegans, fluorescence polarization, dose response (AID 1960).

For assay [28], the target named is T7, Sentrin-specific protease 1 (Homo sapiens, UniProt Q9P0U3). The experiment in a line: SENP1 catalytic domain blockers, concentration series – biochemical, kinetic FRET, dose response (AID 651697). The assay is classed as functional. The note with it: read-out: IC50_Mean.
T7 sequence (Q9P0U3 whole entry, the tested form may be a part): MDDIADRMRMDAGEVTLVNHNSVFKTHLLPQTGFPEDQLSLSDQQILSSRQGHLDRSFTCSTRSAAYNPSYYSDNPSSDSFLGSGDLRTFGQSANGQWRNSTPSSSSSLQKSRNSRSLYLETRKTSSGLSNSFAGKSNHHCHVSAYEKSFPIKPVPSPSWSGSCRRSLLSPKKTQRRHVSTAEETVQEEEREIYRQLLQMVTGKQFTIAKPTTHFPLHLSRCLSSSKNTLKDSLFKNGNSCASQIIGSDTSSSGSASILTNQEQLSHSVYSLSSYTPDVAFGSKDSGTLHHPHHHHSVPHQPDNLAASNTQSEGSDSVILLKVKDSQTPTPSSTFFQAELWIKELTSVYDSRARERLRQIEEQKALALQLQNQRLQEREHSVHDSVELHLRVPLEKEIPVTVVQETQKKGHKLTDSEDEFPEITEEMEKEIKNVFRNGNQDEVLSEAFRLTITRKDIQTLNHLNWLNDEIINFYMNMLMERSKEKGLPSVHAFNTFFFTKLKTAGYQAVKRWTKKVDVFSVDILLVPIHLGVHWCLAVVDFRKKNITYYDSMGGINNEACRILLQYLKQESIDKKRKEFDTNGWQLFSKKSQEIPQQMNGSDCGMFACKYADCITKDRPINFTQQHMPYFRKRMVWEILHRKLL
The target in assay [29] is T7, Sentrin-specific protease 1. The experiment in a line: Dose response confirmation of small molecule inhibitors of the catalytic domain of the SUMO protease, SENP1 in a FRET assay. The assay is classed as functional. As to conditions: read-out: IC50_Mean.
For assay [30], the target named is G-protein coupled receptor 55 (Homo sapiens, UniProt Q9Y2T6). The experiment in a line: inhibition of LPI-stimulated GPR55 beta-arrestin translocation – imaging, U2OS, beta-arrestin-GFP, LPI agonist, primary screen (AID 2013).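 Further: antagonist potency measured as reduced agonist-driven arrestin aggregation.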 The assay is classed as functional.
Chain of G-protein coupled receptor 55 (Q9Y2T6 whole entry): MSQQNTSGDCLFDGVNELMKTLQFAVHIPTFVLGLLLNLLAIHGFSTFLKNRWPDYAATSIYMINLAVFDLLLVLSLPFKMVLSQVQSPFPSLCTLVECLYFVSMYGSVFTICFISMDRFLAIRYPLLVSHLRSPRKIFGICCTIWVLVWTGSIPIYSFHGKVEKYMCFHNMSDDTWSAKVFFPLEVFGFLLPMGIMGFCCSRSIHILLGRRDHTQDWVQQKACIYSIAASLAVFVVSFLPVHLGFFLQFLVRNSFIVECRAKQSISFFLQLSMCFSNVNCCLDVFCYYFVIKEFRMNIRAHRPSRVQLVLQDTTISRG
Assay [31] is described as follows: viability loss in HEK293T cells – cell-based, cherry-picks, cytotoxicity control for HIV Vif inhibitor project, dose response (AID 652208). The assay is classed as functional.
Assay [32] addresses Hepatocyte nuclear factor 4-alpha (Homo sapiens, UniProt P41235). It is filed as functional, cell-based.
Assay [33] can be described thus: activation of miR-122 Renilla sensor silencing – cell-based, Huh7 psiCHECK-miR122, Renilla luciferase, cherry-picked, dose response (AID 651956).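 Further: huh7 hepatoma cells stably carrying a psiCHECK-2 miR-122 sensor plasmid; renilla luciferase signal reporting endogenous miR-122 activity after 48 h compound exposure.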 It is filed as functional.
Assay [34] can be described thus: general mammalian cell viability loss – inhibitor set, cherry-pick, set 2, cytotoxicity control for miR-122 modulator project, dose response (AID 720697). The assay is classed as functional, cell-based.

Active and inactive are the calls of the source.

T1 sequence (Q79MP6 whole entry): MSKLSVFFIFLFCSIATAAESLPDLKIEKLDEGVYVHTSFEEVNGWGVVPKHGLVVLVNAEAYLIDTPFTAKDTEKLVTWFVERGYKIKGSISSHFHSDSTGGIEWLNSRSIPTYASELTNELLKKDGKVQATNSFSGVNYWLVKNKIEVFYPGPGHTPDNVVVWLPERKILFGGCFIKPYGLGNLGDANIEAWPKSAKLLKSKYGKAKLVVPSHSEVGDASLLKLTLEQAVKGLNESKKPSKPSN
Chain of DNA (cytosine-5)-methyltransferase 1 (P26358 whole entry): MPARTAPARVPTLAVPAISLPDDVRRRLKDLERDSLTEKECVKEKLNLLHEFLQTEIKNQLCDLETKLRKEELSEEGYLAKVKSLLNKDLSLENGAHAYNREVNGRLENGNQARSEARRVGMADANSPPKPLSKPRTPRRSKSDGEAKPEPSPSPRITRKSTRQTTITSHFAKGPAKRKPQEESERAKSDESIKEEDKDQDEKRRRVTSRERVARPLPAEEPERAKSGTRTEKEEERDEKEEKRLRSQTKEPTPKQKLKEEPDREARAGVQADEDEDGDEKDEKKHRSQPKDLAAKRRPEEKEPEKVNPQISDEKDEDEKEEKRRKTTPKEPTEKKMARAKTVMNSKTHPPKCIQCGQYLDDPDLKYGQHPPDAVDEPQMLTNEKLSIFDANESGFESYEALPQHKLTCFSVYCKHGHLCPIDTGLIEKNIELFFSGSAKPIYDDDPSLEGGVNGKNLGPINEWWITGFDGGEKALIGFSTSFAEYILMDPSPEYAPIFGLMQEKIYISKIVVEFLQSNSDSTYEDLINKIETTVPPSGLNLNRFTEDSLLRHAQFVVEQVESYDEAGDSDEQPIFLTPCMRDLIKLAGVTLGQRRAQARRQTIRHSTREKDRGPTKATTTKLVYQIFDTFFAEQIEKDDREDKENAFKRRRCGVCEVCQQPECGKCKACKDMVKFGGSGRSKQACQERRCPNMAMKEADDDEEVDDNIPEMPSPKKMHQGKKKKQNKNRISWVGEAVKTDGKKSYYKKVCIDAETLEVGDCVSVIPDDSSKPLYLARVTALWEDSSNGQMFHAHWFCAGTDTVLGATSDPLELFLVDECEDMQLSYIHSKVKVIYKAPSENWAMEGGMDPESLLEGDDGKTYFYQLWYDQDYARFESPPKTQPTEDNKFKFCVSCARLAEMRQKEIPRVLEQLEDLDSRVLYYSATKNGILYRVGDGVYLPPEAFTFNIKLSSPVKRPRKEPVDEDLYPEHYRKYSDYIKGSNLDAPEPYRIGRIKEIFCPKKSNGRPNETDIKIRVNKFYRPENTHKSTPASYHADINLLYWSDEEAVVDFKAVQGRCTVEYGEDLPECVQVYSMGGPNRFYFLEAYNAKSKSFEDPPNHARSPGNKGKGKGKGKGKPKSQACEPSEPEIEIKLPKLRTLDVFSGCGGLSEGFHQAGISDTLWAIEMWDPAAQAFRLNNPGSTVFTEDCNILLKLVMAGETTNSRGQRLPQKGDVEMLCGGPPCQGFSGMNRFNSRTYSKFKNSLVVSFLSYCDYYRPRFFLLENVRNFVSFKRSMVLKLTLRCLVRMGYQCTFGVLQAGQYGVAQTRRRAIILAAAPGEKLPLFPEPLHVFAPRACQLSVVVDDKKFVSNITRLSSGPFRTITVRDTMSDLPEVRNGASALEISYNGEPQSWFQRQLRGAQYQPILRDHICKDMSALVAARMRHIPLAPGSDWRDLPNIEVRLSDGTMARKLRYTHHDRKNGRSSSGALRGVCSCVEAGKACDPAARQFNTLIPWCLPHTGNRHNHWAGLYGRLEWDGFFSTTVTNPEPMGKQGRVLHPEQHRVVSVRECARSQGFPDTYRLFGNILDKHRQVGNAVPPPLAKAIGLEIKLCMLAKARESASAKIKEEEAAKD

As for `C[C@@H](NC(=O)C[C@H]1C[C@@H]2c3cc(NC(=O)c4cccnc4)ccc3O[C@@H]2[C@@H](CO)O1)c1ccccc1`, in assay [1], the AbsAC35 was found to be 222.38 µM.
As to `O=P(O)(O)c1ccccc1OCc1ccccc1`, the IC50 is > 59.6 µM (inactive) in assay [2], > 59.6 µM (inactive) in assay [3], > 59.6 µM (inactive) in assay [4] and 2.21 µM (active) in assay [5].
For `COc1cc(C2C(C(=O)c3sc(C)nc3C)=C(O)C(=O)N2CCN(C)C)cc(OC)c1OC` (centres undefined), the IC50 in assay [6] was 155 µM (inactive).
In the case of `COC(=O)CN1C(=S)N(c2ccc(Cl)cc2)C(=O)C1CC(=O)Nc1ccc(Cl)cc1` (centres undefined), the IC50 in assay [7] is 13.7 µM (inactive); in assay [8], 83.3 µM (inactive); in assay [9] it was 19.7 µM (inactive).
In the case of `COc1ccc(CCNc2ncnc3c2oc2ccccc23)cc1OC`, the AC50 in assay [10] was 1.78 µM (active); in assay [11] it was 0.524 µM (active); in assay [12], 3.79 µM (active); in assay [13], 1.89 µM (active). The IC50 in [14] is 1.07 µM (active); in assay [15], 5.03 µM (active).
`COc1ccc(NC(=O)Nc2ccc3c(c2)CC(=O)N([C@H](C)CO)C[C@H](C)[C@H](CN(C)Cc2ccc(C(=O)Nc4ccccc4N)cc2)O3)cc1`: the AC50 in assay [16] was 4.17 µM (active).
Take `Cc1ccc2[nH]c3c(c2c1)CCCC3NCCO` (centres undefined): the AC50 was 135 µM (active) in assay [17] and 22.2 µM (active) in [18].
As to `O=C(N/N=C/c1c[nH]c2ccccc12)c1cc(Br)ccc1O`, the AC50 in assay [19] is 7.18 µM (active).
Turning to `O=C(COC(=O)c1cc2c(s1)CCC2)Nc1ccc(F)cc1`, the IC50 in [20] was 19.6 µM (active); in assay [21] it was 34.6 µM (active); in assay [22], 4.34 µM (active); in assay [23] it was 10.3 µM (active).
In the case of `O=C(c1ccc(-n2cccn2)cc1)N1CCN(c2ncccc2C(F)(F)F)CC1`, the IC50 in assay [24] is > 80 µM (inactive).
`O=C(COc1ccc2ccc(=O)oc2c1)Nc1cccnc1`: the AC50 in [25] is 13.6 µM (active).
Consider `Cc1cccc(-c2c3c(=O)n(C)c(=O)n(C)c3c3cccnn23)c1`, for which the EC50 was 83.8 µM (active) in assay [26] and 87.6 µM (active) in [27]. Besides, the IC50 in assay [28] was 27 µM (inactive); in assay [29], 11.3 µM (active).
Turning to `CCCN1C(=O)/C(=C\C=C2\N(CC)c3ccccc3C2(C)C)SC1=S`, the IC50 in [30] is 0.824 µM (active). For the same compound, in assay [31], the AC50 was > 52 µM (inactive).
In the case of `COc1ccc(C(C(=O)Nc2c(C)cccc2C)n2c(=O)c(-c3ccco3)nc3ccccc32)cc1` (centres undefined), the IC50 in [32] is 2.42 µM (active).
As for `C[C@@H]1CN([C@@H](C)CO)S(=O)(=O)c2ccc(C#Cc3ccncc3)cc2O[C@@H]1CN(C)C(=O)Nc1ccc2c(c1)OCO2`, the AC50 in assay [33] was 6.9 µM (active); in assay [34] it was 10.7 µM (active).

As usually defined, the AC50 is the midpoint of the concentration-response curve, whichever way the signal moves. Broadly, the EC50 is the midpoint of the concentration-response curve.
